Laboratory results: patent US20080306044A1, “SPIROBENZOAZEPANES AS VASOPRESSIN ANTAGONISTS” (priority 2007, published 2008)

Columns and labels:
[1] = biological target: T1, human V1a receptor (Homo sapiens, UniProt P37288); assay: In-vitro binding assay (3H-arginine-8-vasopressin), V1a; settings: for IC50: membrane containing human V1a receptor, 3H-arginine-8-vasopressin 0.65-0.75 nM
T1 construct: expressed in transfected cells
Protocol: (§1) Assay buffer is 50 mM Tris-Cl, 5 mM MgCl2, 0.1% BSA (pH 7.5) containing 5 μg/mL of aprotinin, leupeptin, pepstatin, 50 μg/mL bacitracin, and 1 mM Pefabloc (4-(2-aminoethyl)-benzenesulfonyl fluoride, hydrochloride manufactured by Roche Diagnostics Corporation, Indianapolis, Ind. and distributed by Boehringer Mannheim). H3 vasopressin is ^3H-arginine-8-vasopressin (NEN Life Sciences, Boston, Mass.; 68.5 Ci/mmol, final concentration in assay is 0.65-0.75 nM). Into the wells of a 96-well round bottom polypropylene plates are added buffer, test compound, membrane (containing human V1a or V2 receptor), and H3 vasopressin. The reaction plates are allowed to sit at room temperature for one hour. The samples are filtered through Unifilter GF/C plates (PerkinElmer Life Sciences, Boston, Mass.) presoaked in 0.3 polyethyleneimine. The plates are washed 5 times with cold physiological saline containing 0.05% Tween 20. After drying, the bottom of the filter plates are sealed and 0.025 mL of Microscint-20 (Packard Instrument Co, Meriden, Conn.) is added to each filter. The top of the plate is sealed, and the plate is counted. Non-specific binding is determined by the addition of 1.25 μM arginine-8-vasopressin in those wells.
(§2) The % inhibition for the test results was calculated according to the formula: […]
Where an IC50 value was not obtained, the percent inhibition values are shown in parentheses (*) and were obtained at a test concentration of 0.2 μM.

[2] = biological target: T1, human V1a receptor; assay: cell-based
Protocol: The V1a receptor is a G-protein coupled receptor, which upon activation triggers an increase in intracellular calcium mobilization. To evaluate compounds for their functional V1a receptor activity, HEK-293 cells were transfected with the human V1a receptor (V1a-HEK cells). HEK-293 cells were grown in DMEM (Dulbecco's modified Eagle Media) supplemented with 10% FBS and glutamine. HEK-cells were passed biweekly by trypsinization and seeded into 96 well plates at 33,000 cells per well. HEK-293 cells were transfected with human V1a receptor DNA using DMRIE-C reagent from Life Technologies (Carlsbad, Calif.). Stable lines were generated by selecting cells grown in culture media containing geneticin. After growing in Packard Clear-View black 96 well plates for 4-6 days, V1a-HEK cells were loaded with the calcium-sensitive fluorescence dye, FLUO-3 AM. Changes in intracellular calcium mobilization were measured by quantitating intracellular fluorescence using FLIPR (Fluorometric Imaging Plate Reader; Molecular Devices, Sunnyvale, Calif.). Test compounds were first added to the cells and the resulting changes in fluorescence measured to detect receptor agonistic activity. Five minutes later the cells were challenged with vasopressin to test compounds for their antagonistic activity. Receptor antagonists inhibit the ability of vasopressin to stimulate increases in intracellular fluorescence.

[3] = biological target: T2, human V2 receptor (Homo sapiens, UniProt P30518); assay: V2 vasopressin receptor functional activity (cAMP accumulation); format: cell-based; parameters: expressed in transfected cells; host or cells: HEK-293; settings: V2-HEK cells; block of vasopressin-stimulated cAMP accumulation; read-out: V2 (functional) IC50
T2 sequence (P30518 whole entry): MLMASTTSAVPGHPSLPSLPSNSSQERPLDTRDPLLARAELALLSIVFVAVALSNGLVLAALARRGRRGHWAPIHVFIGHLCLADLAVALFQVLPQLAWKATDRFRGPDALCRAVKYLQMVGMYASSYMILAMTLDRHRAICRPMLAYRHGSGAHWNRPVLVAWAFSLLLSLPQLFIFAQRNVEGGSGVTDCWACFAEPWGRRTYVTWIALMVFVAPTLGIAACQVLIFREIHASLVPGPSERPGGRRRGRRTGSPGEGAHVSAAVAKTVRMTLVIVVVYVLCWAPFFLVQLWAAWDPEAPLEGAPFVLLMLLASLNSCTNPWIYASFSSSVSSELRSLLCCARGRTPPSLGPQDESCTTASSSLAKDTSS
Protocol: The V2 receptor is also a G-protein coupled receptor which when activated induces an increase in cAMP turnover. Antagonism against the V2 receptor is determined by measuring cAMP accumulation in transfected HEK-293 cells expressing the human V-2 receptor (V2-HEK cells). Compounds are tested for their ability to block the stimulatory effects of vasopressin on cAMP accumulation. The cell content of cAMP is measured by radioimmunoassay using NEN flashplates.

[4] = biological target: T2, human V2 receptor; assay: In-vitro binding assay (3H-arginine-8-vasopressin), V2; settings: for IC50: membrane containing human V2 receptor, 3H-arginine-8-vasopressin 0.65-0.75 nM; for inhibition at 0.2 µM: test concentration of 0.2 μM, read-out: V2 binding percent inhibition (in parentheses, where an IC50 value was not obtained)
Protocol: as §1, with “H3 vasopressin is ^3H-arginine-8-vasopressin (NEN Life Sciences, Boston, Mass.; 68.5 Ci/mmol, final concentration in assay is 0.65-0.75 nM).” left out, “counted.” for “counted. Non-specific binding is determined by the addition of 1.25 μM arginine-8-vasopressin in those wells.”
as §2

[5] = V1 (functional) IC50, V1a-HEK cells, inhibition of vasopressin-stimulated intracellular calcium mobilization

T1 sequence (P37288 whole entry): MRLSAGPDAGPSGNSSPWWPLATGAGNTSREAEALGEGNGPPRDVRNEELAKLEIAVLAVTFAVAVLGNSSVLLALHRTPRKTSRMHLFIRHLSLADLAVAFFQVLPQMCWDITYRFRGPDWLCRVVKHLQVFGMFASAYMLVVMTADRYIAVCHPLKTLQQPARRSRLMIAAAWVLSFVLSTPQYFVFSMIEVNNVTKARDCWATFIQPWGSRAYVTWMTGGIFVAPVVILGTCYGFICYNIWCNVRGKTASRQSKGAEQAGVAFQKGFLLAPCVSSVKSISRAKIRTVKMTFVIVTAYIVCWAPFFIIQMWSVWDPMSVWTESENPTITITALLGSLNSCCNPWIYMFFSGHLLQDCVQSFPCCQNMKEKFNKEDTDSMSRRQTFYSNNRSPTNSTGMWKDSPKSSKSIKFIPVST

NCC(=O)NC1CCCC12CCN(C(=O)c1ccc(NC(=O)c3ccccc3-c3ccccc3)cc1)c1ccccc1C2 (centres unmarked) [Cpd 40, 2-(aminomethylcarbonyl)amino-N-[4-(biphen-2-ylcarbonyl)amino-phenylcarbonyl]-spiro[cyclopentane-1,4′-benzo[b]azepane]]
IC50 [1]: 23 nM
IC50 [2]: 290 nM
IC50 [3]: 200 nM
IC50 [4]: 15 nM

O=C(NN=C1CCCC12CCN(C(=O)c1ccc(NC(=O)c3cc(F)ccc3Cl)cc1)c1ccccc1C2)c1cccnc1 (centres unmarked) [Cpd 4, N-[4-(2-chloro-5-fluoro-phenylcarbonyl)amino-phenylcarbonyl]-2-pyridin-3-ylcarbonylaminoimino-spiro[cyclopentane-1,4′-benzo[b]azepane]]
IC50 [1]: 12 nM
IC50 [2, 5]: 20 nM
IC50 [3]: 43 nM
IC50 [4]: 62 nM

O=C(Nc1ccc(C(=O)N2CC[C@@]3(CCCC3=NO)Cc3ccccc32)cc1)c1cc(F)ccc1Cl [Cpd 7, (R)—N-[4-(2-chloro-5-fluoro-phenylcarbonyl)amino-phenylcarbonyl]-2-hydroxyimino-spiro[cyclopentane-1,4′-benzo[b]azepane]]
IC50 [1]: 8 nM
IC50 [2, 5]: 18 nM
IC50 [3]: 24 nM
IC50 [4]: 28 nM

O=C(Nc1ccc(C(=O)N2CC[C@]3(CCCC3=NO)Cc3ccccc32)cc1)c1cc(F)ccc1Cl [Cpd 45, (S)—N-[4-(2-chloro-5-fluoro-phenylcarbonyl)amino-phenylcarbonyl]-2-hydroxyimino-spiro[cyclopentane-1,4′-benzo[b]azepane]]
inhibition at 0.2 µM ([1]; test concentration of 0.2 μM, read-out: V1a binding percent inhibition (in parentheses, where an IC50 value was not obtained)): 67%
IC50 [2, 5]: 570 nM
IC50 [3]: 550 nM
inhibition at 0.2 µM [4]: 10%

NN=C1CCCC12CCN(C(=O)c1ccc(NC(=O)c3cc(F)ccc3Cl)cc1)c1ccccc1C2 (centres unmarked) [Cpd 1, 2-aminoimino-N-[4-(2-chloro-5-fluoro-phenylcarbonyl)amino-phenylcarbonyl]-spiro[cyclopentane-1,4′-benzo[b]azepane]]
IC50 [1]: 3 nM
IC50 [2, 5]: 10 nM
IC50 [3]: 54 nM
IC50 [4]: 23 nM

COc1cc(C(=O)N2CCC3(CCCC3=NO)Cc3ccccc32)ccc1NC(=O)c1cc(F)ccc1Cl (centres unmarked) [Cpd 42, N-[3-methoxy-4-(2-chloro-5-fluoro-phenylcarbonyl)amino-phenylcarbonyl]-2-hydroxyimino-spiro[cyclopentane-1,4′-benzo[b]azepane]]
IC50 [1]: 12 nM
IC50 [2, 5]: 60 nM
IC50 [3]: 92 nM
IC50 [4]: 39 nM

NN=C1CCCC12CCN(C(=O)c1ccc(NC(=O)c3ccccc3-c3ccccc3)cc1)c1ccccc1C2 (centres unmarked) [Cpd 38, 2-aminoimino-N-[4-(biphen-2-ylcarbonyl)amino-phenylcarbonyl]-spiro[cyclopentane-1,4′-benzo[b]azepane]]
IC50 [1]: 21 nM
IC50 [2, 5]: < 30 nM
IC50 [3]: 40 nM
IC50 [4]: 24 nM

NCCON=C1CCCC12CCN(C(=O)c1ccc(NC(=O)c3cccc(F)c3)cc1)c1ccccc1C2 (centres unmarked) [Cpd 41, N-[4-(3-fluoro-phenylcarbonyl)amino-phenylcarbonyl]-2-(2-amino-ethoxy)imino-spiro[cyclopentane-1,4′-benzo[b]azepane]]
IC50 [1]: 8 nM
IC50 [2]: 20 nM
IC50 [3]: 700 nM
inhibition at 0.2 µM [4]: 55%

CN(C)N=C1CCCC12CCN(C(=O)c1ccc(NC(=O)c3cc(F)ccc3Cl)cc1)c1ccccc1C2 (centres unmarked) [Cpd 3, N-[4-(2-chloro-5-fluoro-phenylcarbonyl)amino-phenylcarbonyl]-2-dimethylaminoimino-spiro[cyclopentane-1,4′-benzo[b]azepane]]
IC50 [1]: 9 nM
IC50 [2, 5]: 20 nM
IC50 [3]: 250 nM
inhibition at 0.2 µM [4]: 48%

O=C(Nc1ccc(C(=O)N2CCC3(CCCC3=NNc3ccccn3)Cc3ccccc32)cc1)c1cc(F)ccc1Cl (centres unmarked) [Cpd 43, N-[4-(2-chloro-5-fluoro-phenylcarbonyl)amino-phenylcarbonyl]-2-pyridin-2-ylaminoimino-spiro[cyclopentane-1,4′-benzo[b]azepane]]
IC50 [1]: 5 nM
IC50 [2, 5]: 80 nM
IC50 [3]: 200 nM
IC50 [4]: 56 nM

NC1CCCC12CCN(C(=O)c1ccc(NC(=O)c3ccccc3-c3ccccc3)cc1)c1ccccc1C2 (centres unmarked) [Cpd 39, 2-amino-N-[4-(biphen-2-ylcarbonyl)amino-phenylcarbonyl]-spiro[cyclopentane-1,4′-benzo[b]azepane]]
IC50 [1]: 80 nM
IC50 [2]: 730 nM
IC50 [3]: 690 nM
IC50 [4]: 110 nM
